Assay results published in US20070077279A1, “Novel compositions containing polyphenols” (DSM IP Assets B.V., priority 2005, published 2007).

Assays:
Format in all cases: physicochemical
[1] = Storage test of lozenges at room temperature (25° C./60% relative humidity) in closed polypropylene tubes; conditions: for Vitamin/polyphenol in mg/tablet, 1 month: lozenges of Example 1, 1 month; for Vitamin/polyphenol in mg/tablet, 2 months: lozenges of Example 1, 2 months; for Vitamin/polyphenol in mg/tablet, 3 months: lozenges of Example 1, 3 months; for Vitamin/polyphenol in mg/tablet, 6 months: lozenges of Example 1, 6 months; for Vitamin/polyphenol in mg/tablet, 12 months: lozenges of Example 1, 12 months; for Vitamin/polyphenol in mg/tablet, 18 months: lozenges of Example 1, 18 months; for Vitamin/polyphenol in mg/tablet, 24 months: lozenges of Example 1, 24 months
[2] = Storage test of chewable tablets at room temperature (25° C./60% relative humidity) in closed polypropylene tubes; conditions: for Vitamin/polyphenol in mg/tablet, 1 month: chewable tablets of Example 2, 1 month; for Vitamin/polyphenol in mg/tablet, 2 months: chewable tablets of Example 2, 2 months; for Vitamin/polyphenol in mg/tablet, 3 months: chewable tablets of Example 2, 3 months; for Vitamin/polyphenol in mg/tablet, 6 months: chewable tablets of Example 2, 6 months; for Vitamin/polyphenol in mg/tablet, 12 months: chewable tablets of Example 2, 12 months
[3] = Storage test of lozenges under accelerated conditions (40° C./75% relative humidity) in closed polypropylene tubes; conditions: lozenges of Example 1; for Initial Assay, vitamin/polyphenol in mg/tablet: 40° C./75% relative humidity study; for Vitamin/polyphenol in mg/tablet, 1 month 40° C. / Vitamin/polyphenol in mg/tablet, 2 months 40° C. / Vitamin/polyphenol in mg/tablet, 3 months 40° C.: 40° C./75% relative humidity
[4] = Storage test of chewable tablets under accelerated conditions (40° C./75% relative humidity) in closed polypropylene tubes; conditions: chewable tablets of Example 2; for Initial Assay, vitamin/polyphenol in mg/tablet: 40° C./75% relative humidity study; for Vitamin/polyphenol in mg/tablet, 1 month 40° C. / Vitamin/polyphenol in mg/tablet, 2 months 40° C. / Vitamin/polyphenol in mg/tablet, 3 months 40° C.: 40° C./75% relative humidity
[5] = lozenges of Example 1, initial (Table 2)
[6] = chewable tablets of Example 2, initial
[7] = chewable tablets of Example 2, initial (Table 4)

SMILES: O=C(O[C@@H]1Cc2c(O)cc(O)cc2O[C@@H]1c1cc(O)c(O)c(O)c1)c1cc(O)c(O)c(O)c1 [EGCG, epigallocatechin gallate]
- Vitamin/polyphenol in mg/tablet, 1 month [1]: 11.8 mg
- Vitamin/polyphenol in mg/tablet, 2 months [1]: 10.9 mg
- Vitamin/polyphenol in mg/tablet, 3 months [1]: 11.0 mg
- Vitamin/polyphenol in mg/tablet, 6 months [1]: 10.6 mg
- Vitamin/polyphenol in mg/tablet, 12 months [1]: 11.6 mg
- Vitamin/polyphenol in mg/tablet, 18 months [1]: 12.0 mg
- Vitamin/polyphenol in mg/tablet, 24 months [1]: 11.3 mg
- Initial Assay, vitamin/polyphenol in mg/tablet ([1]; lozenges of Example 1, initial): 11.9 mg
- Initial Assay, vitamin/polyphenol in mg/tablet [1, 5]: 11.9 mg
- Vitamin/polyphenol in mg/tablet, 1 month [2]: 23.0 mg
- Vitamin/polyphenol in mg/tablet, 2 months [2]: 23.8 mg
- Vitamin/polyphenol in mg/tablet, 3 months [2]: 24.1 mg
- Vitamin/polyphenol in mg/tablet, 6 months [2]: 23.7 mg
- Vitamin/polyphenol in mg/tablet, 12 months [2]: 22.6 mg
- Initial Assay, vitamin/polyphenol in mg/tablet [2, 6]: 23.8 mg
- Initial Assay, vitamin/polyphenol in mg/tablet [2, 7]: 23.8 mg
- Initial Assay, vitamin/polyphenol in mg/tablet [3]: 11.9 mg
- Vitamin/polyphenol in mg/tablet, 1 month 40° C. [3]: 11.8 mg
- Vitamin/polyphenol in mg/tablet, 2 months 40° C. [3]: 11.4 mg
- Vitamin/polyphenol in mg/tablet, 3 months 40° C. [3]: 10.6 mg
- Initial Assay, vitamin/polyphenol in mg/tablet [4]: 23.8 mg
- Vitamin/polyphenol in mg/tablet, 1 month 40° C. [4]: 24.8 mg
- Vitamin/polyphenol in mg/tablet, 2 months 40° C. [4]: 23.2 mg
- Vitamin/polyphenol in mg/tablet, 3 months 40° C. [4]: 23.2 mg

SMILES: O=C1O[C@H]([C@@H](O)CO)C(O)=C1O [Vit C, Ascorbic Acid]
- Vitamin/polyphenol in mg/tablet, 1 month [1]: 11.4 mg
- Vitamin/polyphenol in mg/tablet, 2 months [1]: 12.2 mg
- Vitamin/polyphenol in mg/tablet, 3 months [1]: 11.3 mg
- Vitamin/polyphenol in mg/tablet, 6 months [1]: 12.3 mg
- Vitamin/polyphenol in mg/tablet, 12 months [1]: 12.1 mg
- Vitamin/polyphenol in mg/tablet, 18 months [1]: 12.0 mg
- Vitamin/polyphenol in mg/tablet, 24 months [1]: 11.9 mg
- Initial Assay, vitamin/polyphenol in mg/tablet ([1]; lozenges of Example 1, initial): 12.2 mg
- Initial Assay, vitamin/polyphenol in mg/tablet [1, 5]: 12.2 mg
- Vitamin/polyphenol in mg/tablet, 1 month [2]: 32.3 mg
- Vitamin/polyphenol in mg/tablet, 2 months [2]: 33.3 mg
- Vitamin/polyphenol in mg/tablet, 3 months [2]: 36.1 mg
- Vitamin/polyphenol in mg/tablet, 6 months [2]: 32.5 mg
- Vitamin/polyphenol in mg/tablet, 12 months [2]: 33.0 mg
- Initial Assay, vitamin/polyphenol in mg/tablet [2, 6]: 33.7 mg
- Initial Assay, vitamin/polyphenol in mg/tablet [2, 7]: 33.7 mg
- Initial Assay, vitamin/polyphenol in mg/tablet [3]: 12.2 mg
- Vitamin/polyphenol in mg/tablet, 1 month 40° C. [3]: 11.2 mg
- Vitamin/polyphenol in mg/tablet, 2 months 40° C. [3]: 11.1 mg
- Vitamin/polyphenol in mg/tablet, 3 months 40° C. [3]: 11.2 mg
- Initial Assay, vitamin/polyphenol in mg/tablet [4]: 33.7 mg
- Vitamin/polyphenol in mg/tablet, 1 month 40° C. [4]: 31.8 mg
- Vitamin/polyphenol in mg/tablet, 2 months 40° C. [4]: 32.4 mg
- Vitamin/polyphenol in mg/tablet, 3 months 40° C. [4]: 33.6 mg

SMILES: CC(=O)Oc1c(C)c(C)c2c(c1C)CCC(C)(CCC[C@H](C)CCC[C@H](C)CCCC(C)C)O2 (stereo partly drawn) [Vit E, Tocopherol Acetate]
- Vitamin/polyphenol in mg/tablet, 1 month [1]: 1.7 mg
- Vitamin/polyphenol in mg/tablet, 2 months [1]: 1.7 mg
- Vitamin/polyphenol in mg/tablet, 3 months [1]: 1.8 mg
- Vitamin/polyphenol in mg/tablet, 6 months [1]: 1.6 mg
- Vitamin/polyphenol in mg/tablet, 12 months [1]: 1.5 mg
- Vitamin/polyphenol in mg/tablet, 18 months [1]: 1.6 mg
- Vitamin/polyphenol in mg/tablet, 24 months [1]: 1.7 mg
- Initial Assay, vitamin/polyphenol in mg/tablet ([1]; lozenges of Example 1, initial): 1.6 mg
- Initial Assay, vitamin/polyphenol in mg/tablet [1, 5]: 1.6 mg
- Vitamin/polyphenol in mg/tablet, 1 month [2]: 8.4 mg
- Vitamin/polyphenol in mg/tablet, 2 months [2]: 8.5 mg
- Vitamin/polyphenol in mg/tablet, 3 months [2]: 8.6 mg
- Vitamin/polyphenol in mg/tablet, 6 months [2]: 8.3 mg
- Vitamin/polyphenol in mg/tablet, 12 months [2]: 8.6 mg
- Initial Assay, vitamin/polyphenol in mg/tablet [2, 6]: 8.3 mg
- Initial Assay, vitamin/polyphenol in mg/tablet [2, 7]: 8.3 mg
- Initial Assay, vitamin/polyphenol in mg/tablet [3]: 1.6 mg
- Vitamin/polyphenol in mg/tablet, 1 month 40° C. [3]: 1.6 mg
- Vitamin/polyphenol in mg/tablet, 2 months 40° C. [3]: 1.6 mg
- Vitamin/polyphenol in mg/tablet, 3 months 40° C. [3]: 1.8 mg
- Initial Assay, vitamin/polyphenol in mg/tablet [4]: 8.3 mg
- Vitamin/polyphenol in mg/tablet, 1 month 40° C. [4]: 8.7 mg
- Vitamin/polyphenol in mg/tablet, 2 months 40° C. [4]: 8.5 mg
- Vitamin/polyphenol in mg/tablet, 3 months 40° C. [4]: 8.5 mg
